Data as given in patent US20260174875A1 (Novo Nordisk A/S, priority 2023, published 2026).
Read-outs that look alike come from different tables or passages of the source. Numbered stars: 1 amine (or outer) side, 2 acyl side, 3 side chain; on linkers, the order of the positions; unused ones are H or OH. Square brackets hold non-standard residues; d marks the D form. Side chains are listed from the residue outwards. * marks the point of attachment. C20 diacid = O=C(O)CCCCCCCCCCCCCCCCCCC(=O)*; C18 diacid = O=C(O)CCCCCCCCCCCCCCCCC(=O)*; C16 diacid = O=C(O)CCCCCCCCCCCCCCC(=O)*; γGlu = O=C(O)[C@H](CCC(=O)[*:2])N[*:1]; AEEA = NCCOCCOCC(=O)O; Aib = CC(C)(N)C(=O)O

Tests used:
Type in all cases: cell-based
[1] = biological target: T1, human GIP receptor (hGIPR) (Homo sapiens, UniProt P48546); assay: GIP receptor assay, method A (CRE-luciferase reporter, BHK cells)
T1 construct: expressed in transfected cells
T1 sequence (P48546 22-466): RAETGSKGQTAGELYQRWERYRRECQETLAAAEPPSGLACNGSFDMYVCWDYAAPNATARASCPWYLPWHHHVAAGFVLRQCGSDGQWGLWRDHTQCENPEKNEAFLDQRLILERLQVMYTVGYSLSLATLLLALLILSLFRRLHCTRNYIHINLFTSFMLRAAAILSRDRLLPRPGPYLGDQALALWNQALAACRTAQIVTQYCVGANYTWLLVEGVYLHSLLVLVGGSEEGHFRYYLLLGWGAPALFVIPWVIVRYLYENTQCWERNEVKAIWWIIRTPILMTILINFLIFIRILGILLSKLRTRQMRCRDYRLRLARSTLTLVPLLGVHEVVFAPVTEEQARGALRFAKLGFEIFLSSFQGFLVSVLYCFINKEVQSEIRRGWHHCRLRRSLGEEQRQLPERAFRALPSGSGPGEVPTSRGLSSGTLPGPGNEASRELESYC
Procedure: To assess how the activation of the receptors is potentially influenced by the presence of human serum albumin (HSA), the in vitro assays were performed in the absence of HSA and presence of 1% (w/v) HSA. Unless stated otherwise the reference to the “GIP receptor assay as described in Example 4” throughout the specification shall refer to the described herein assay procedure method A (hGIPR assay) in the absence of HSA.
Activation of the human GIP receptor leads to increased intra-cellular concentrations of cyclic AMP (cAMP) and the consequent transcription activation from promoters containing multiple copies of the cAMP response element (CRE). It is thus possible to measure GIP receptor activity using a CRE-luciferase reporter gene introduced into Baby Hamster Kidney (BHK) cells co-expressing the human GIP receptor.
Cells at about 80-90% confluency were washed once with PBS (Gibco 14190-094) and detached from the cell flasks with Versene (Gibco, 15040-066). After centrifugation, the cells were counted, resuspended and diluted to approximately 1.5-3.0×10^6 (1.5E+6 to 3.0E+6) cells/mL in Recovery Cell Culture Freezing Medium (Gibco, 12648-010) and stored at −180° C. in suitable aliquots until use.
(§1) The assay buffer consisted of DMEM without phenol red (Gibco, 11880-028) supplemented with 1× GlutaMAX (Gibco, 35050-038), 10 mM HEPES (Gibco, 15630-056), 1% (w/v) ovalbumin (Sigma, A5503) and 0.1% (v/v) Pluronic F-68 (Gibco, 24040-032) either with HSA or without HSA (Sigma, A9511).
On the day before the assay hGIPR BHK Cre-Luc cells were thawed and plated out in 96 well Culture Plates (PerkinElmer/Revvity, 6005680) at 5.0×10^3 (5.0E+3) cells/well in growth medium as described above. The plates were then incubated for 21-23 hours at 37° C. with 5% CO2. On the day of the assay GLP-1-/GIP-/amylin-receptor tri-agonists or reference compounds were diluted in assay buffer using a 7-point, 10-fold titration plus a blank (absence of compound). Each compound was diluted and tested in duplicates in each experiment. In the plates containing the cells the growth medium was removed, and cells were washed twice with 100 μL PBS (Gibco 14190-094). 50 μL of the test compound dilutions were added to the plates containing cells preceded by 50 μL assay buffer with or without 2% (w/v) HSA (Sigma, A9511). The cell plates were incubated for 3 hours in a 5% CO2 incubator at 37° C. The plates were then transferred to room temperature followed by addition of 100 μL steadylite Plus™ (PerkinElmer/Revvity, 6066759). The plates were sealed and shaken for 30 minutes at room temperature while protected from light. Finally, luminescence (as an indicator of receptor activation) was measured on a Mithras reader (Berthold Technologies, DE). The EC50-values [pM] were calculated by non-linear curve fitting applying a four-parameter logistic model (Hill slope=“shared value for all datasets”) using GraphPad Prism (GraphPad Software, Boston, MA, USA).

[2] = biological target: T2, human amylin receptor (hAMYR3) (Homo sapiens, UniProt O60896+P30988); assay: Amylin receptor assay, method A (CRE-luciferase reporter, BHK cells)
T2 construct: host or cells: BHK cells (Hollex-1 line expressing hCTR(a) and CRE-Luc), further transfected with human RAMP3
Procedure: (§2) To assess how the activation of the receptors is potentially influenced by the presence of human serum albumin (HSA), the in vitro assays were performed in the absence of HSA and presence of 1% (w/v) HSA.
It is thus possible to measure hAMYR3 activity using a CRE-luciferase reporter gene introduced into Baby Hamster Kidney (BHK) cells co-expressing the hAMYR3.
The cell line was further transfected with human receptor modifying protein 3 (RAMP3) using standard methods.
After centrifugation, the cell pellet was resuspended and diluted to approximately 2.5-4.0×10^6 (2.5E+6 to 4.0E+6) cells/mL in Recovery™ Cell Culture Freezing Medium (Gibco, 12648-010). Cells were aliquoted and stored at −180° C. until use.
as §1, with “15630-056) and” for “15630-056),”, “either with or without” for “and”, “24040-032) and” for “24040-032)”, “with” for “with HSA”
The plate was incubated over night at 37° C. in 5% CO2. […] Luminescence was detected on a luminescence plate reader e.g., a Synergy 2 (BioTek).

[3] = biological target: T3, human GLP-1 receptor (hGLP-1R) (Homo sapiens, UniProt P43220); assay: GLP-1 receptor assay, method A (CRE-luciferase reporter, BHK cells)
T3 construct: expressed in transfected cells
Procedure: as §2
Cells at approximately 80-90% confluence were washed once in PBS (Gibco 14190-094) and loosened from the cell flasks with Versene (Gibco, 15040-033). […] Cells were aliquoted and stored at −180° C. until use.
as §1
Frozen stocks of hGLP-1R BHK CRE-Luc cells were thawed in a 37° C. water bath, washed once in PBS (Gibco 14190-094) and diluted to 1.5×10^6 (1.5E+6) cells/mL in assay buffer with or without 2% (w/v) HSA (Sigma, A9511). […] The assay plates were incubated for 3 hours at 37° C. in 5% CO2, left at room temperature for 5 minutes after which 100 μL steadylite Plus™ (PerkinElmer/Revvity, 6066759) was added to each well. Plates were sealed and incubated at room temperature with gentle shaking for 30 minutes while protected from light. Luminescence was detected on a luminescence plate reader e.g., a Synergy 2 (BioTek).

[4] = hGIPR Potency, no HSA, EC50, method A, absence of HSA
[5] = hAMYR3 Potency, no HSA, EC50, method A, absence of HSA
[6] = hGLP-1R Potency, no HSA, EC50, method A, absence of HSA
[7] = hGIPR Potency, 1% HSA, EC50, method A, in the presence of 1% HSA
[8] = method A, absence of HSA, read-out: hGIPR Potency, no HSA, EC50
[9] = hAMYR3 Potency, 1% HSA, EC50, method A, in the presence of 1% HSA
[10] = method A, absence of HSA, read-out: hAMYR3 Potency, no HSA, EC50
[11] = hGLP-1R Potency, 1% HSA, EC50, method A, in the presence of 1% HSA
[12] = method A, absence of HSA, read-out: hGLP-1R Potency, no HSA, EC50

T2 sequence (P30988 25-474): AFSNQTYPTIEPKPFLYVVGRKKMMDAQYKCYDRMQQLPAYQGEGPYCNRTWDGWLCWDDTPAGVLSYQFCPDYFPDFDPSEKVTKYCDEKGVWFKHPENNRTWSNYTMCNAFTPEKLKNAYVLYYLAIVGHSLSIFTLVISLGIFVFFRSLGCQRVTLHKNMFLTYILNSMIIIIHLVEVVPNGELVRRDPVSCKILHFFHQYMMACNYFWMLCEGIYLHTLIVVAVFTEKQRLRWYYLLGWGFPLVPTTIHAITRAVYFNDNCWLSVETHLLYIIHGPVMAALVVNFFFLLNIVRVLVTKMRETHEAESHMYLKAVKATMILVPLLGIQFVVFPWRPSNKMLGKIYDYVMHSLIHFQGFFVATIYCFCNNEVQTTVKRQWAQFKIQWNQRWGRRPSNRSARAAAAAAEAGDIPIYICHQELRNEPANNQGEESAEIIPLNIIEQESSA
T2 sequence (O60896 24-148): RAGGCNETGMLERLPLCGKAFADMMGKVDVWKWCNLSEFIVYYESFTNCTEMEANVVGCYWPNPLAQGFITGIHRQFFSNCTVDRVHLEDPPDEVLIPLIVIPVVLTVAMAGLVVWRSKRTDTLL
T3 sequence (P43220 24-463): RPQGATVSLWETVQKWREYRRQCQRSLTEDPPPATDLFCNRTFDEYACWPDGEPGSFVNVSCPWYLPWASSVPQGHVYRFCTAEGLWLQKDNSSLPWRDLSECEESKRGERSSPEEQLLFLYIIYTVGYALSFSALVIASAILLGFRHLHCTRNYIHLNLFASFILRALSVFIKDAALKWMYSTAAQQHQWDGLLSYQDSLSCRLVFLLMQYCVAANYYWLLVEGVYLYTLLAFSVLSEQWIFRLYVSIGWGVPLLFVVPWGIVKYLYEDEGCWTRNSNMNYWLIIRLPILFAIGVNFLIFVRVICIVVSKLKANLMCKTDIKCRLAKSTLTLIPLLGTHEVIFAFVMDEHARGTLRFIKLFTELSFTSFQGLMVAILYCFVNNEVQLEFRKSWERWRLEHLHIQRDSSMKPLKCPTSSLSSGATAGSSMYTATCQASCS

EC50 [1, 7]	EC50 [1, 8]	EC50 [2, 9]	EC50 [2, 10]	EC50 [3, 11]	EC50 [3, 12]	Substance	EC50 [1, 4]	EC50 [2, 5]	EC50 [3, 6]
–	–	–	–	–	–	Y[Aib]EGTFTSDYSILLEEQAAREFIEWLLAGGPSK([γGlu-C20 diacid])GAPPPSGGGEASELSTAALGRLSAELHRLADLPRTETGSGSP-NH2 [Compound 41]	0.00502 nM	0.00672 nM	0.0408 nM
0.00979 nM	0.00212 nM	0.589 nM	0.00657 nM	0.0417 nM	0.0131 nM	Y[Aib]EGTFTSDYSILLEEQAAREFIEWLLAGGPSRGAPPPSGGGEASHLSTQTQGRLSAELHK([AEEA-AEEA-γGlu-C18 diacid])LATLPRTETGSGSP-NH2 [Compound 72]	–	–	–
0.037 nM	0.00428 nM	0.19 nM	0.00366 nM	0.105 nM	0.0154 nM	Y[Aib]EGTFTSDYSILLEEQAAREFIEWLLAGGPSRGEASELSTAALGRLSAELHK([AEEA-AEEA-γGlu-C18 diacid])LATLPRTETGSGSP-NH2 [Compound 67]	–	–	–
0.0295 nM	0.0029 nM	0.377 nM	0.00391 nM	0.13 nM	0.0161 nM	Y[Aib]EGTFTSDYSILLEEQAAREFIEWLLAGGPSRGEASHLSTAQTQRLSAELHK([AEEA-AEEA-γGlu-C20 diacid])LATLPRTETGSGSP-NH2 [Compound 94]	–	–	–
0.0172 nM	0.00429 nM	0.0452 nM	0.00227 nM	0.126 nM	0.0433 nM	Y[Aib]EGTFTSDYSILLEEQAAREFIEWLLAGGPSSGAGQAPGQAPGASHLSTAALARLSAELHK([AEEA-AEEA-γGlu-C18 diacid])LATLPRTETGSGSP-NH2 [Compound 114]	–	–	–
0.00896 nM	0.00202 nM	0.136 nM	0.00253 nM	0.0575 nM	0.0144 nM	Y[Aib]EGTFTSDYSILLEEQAAREFIEWLLAGGPSSGAGQAPGQAPGASHLSTAQTARLSAELHK([AEEA-AEEA-γGlu-C18 diacid])LATLPRTETGSGSP-NH2 [Compound 113]	–	–	–
0.0122 nM	0.00224 nM	0.134 nM	0.00326 nM	0.047 nM	0.011 nM	Y[Aib]EGTFTSDYSILLEEQAAREFIEWLLAGGPSSGAGQAPGQAPGASHLSTAQTQRLSAELHQLK([AEEA-AEEA-γGlu-C18 diacid])TLPRTETGSGSP-NH2 [Compound 102]	–	–	–
0.0111 nM	0.00282 nM	0.43 nM	0.00311 nM	0.0636 nM	0.0199 nM	Y[Aib]EGTFTSDYSILLEEQAAREFIEWLLAGGPSSGAGQAPGQAPGASHLSTAQTQRLSAELHRLATLPK([AEEA-AEEA-γGlu-C20 diacid])TETGSGSP-NH2 [Compound 76]	–	–	–
0.0122 nM	0.00366 nM	0.0664 nM	0.00333 nM	0.0348 nM	0.0159 nM	Y[Aib]EGTFTSDYSILLEEQAAREFIEWLLAGGPSSGAGQAPGQAPGASHLSTAQTQRLSAELHRLK([AEEA-AEEA-AEEA-γGlu-C18 diacid])TLPRTETGSGSP-NH2 [Compound 111]	–	–	–
–	–	–	–	–	–	Y[Aib]EGTFTSDYSILLEEQAAREFIEWLLAGGPSSGAGQAPGQAPGASK([AEEA-AEEA-γGlu-C18 diacid])LSTAQTQRLSAELHRLATLPRTETGSGSP-NH2 [Compound 54]	0.00556 nM	0.00302 nM	0.0288 nM
0.0112 nM	0.00258 nM	0.108 nM	0.0023 nM	0.0431 nM	0.0133 nM	Y[Aib]EGTFTSDYSILLEEQAAREFIEWLLAGGPSSGAGQAPGQAPLASHLSTAQTARLSAELHK([AEEA-AEEA-γGlu-C18 diacid])LATLPRTETGSGSP-NH2 [Compound 98]	–	–	–
0.0272 nM	0.00772 nM	0.0242 nM	0.00385 nM	0.0397 nM	0.0506 nM	Y[Aib]EGTFTSDYSILLEEQAAREFIEWLLAGGPSSGALAQTLAQTLASHLSTAQTQRLSAELHK([AEEA-AEEA-γGlu-C16 diacid])LATLPRTETGSGSP-NH2 [Compound 59]	–	–	–
0.054 nM	0.00702 nM	0.0785 nM	0.0032 nM	0.105 nM	0.0648 nM	Y[Aib]EGTFTSDYSILLEEQAAREFIEWLLAGGPSSGALAQTLAQTLASHLSTAQTQRLSAELHK([AEEA-AEEA-γGlu-C18 diacid])LATLPRTETGSGSP-NH2 [Compound 48]	–	–	–
0.0283 nM	0.00606 nM	0.191 nM	0.00385 nM	0.173 nM	0.0944 nM	Y[Aib]EGTFTSDYSILLEEQAAREFIEWLLAGGPSSGALAQTLAQTLASHLSTAQTQRLSAELHK([AEEA-AEEA-γGlu-C20 diacid])LATLPRTETGSGSP-NH2 [Compound 60]	–	–	–
0.0125 nM	0.00308 nM	0.113 nM	0.00288 nM	0.0489 nM	0.0126 nM	Y[Aib]EGTFTSDYSILLEEQAAREFIEWLLAGGPSSGALQAPGQAPLASHLSTAQTARLSAELHK([AEEA-AEEA-γGlu-C18 diacid])LATLPRTETGSGSP-NH2 [Compound 105]	–	–	–
